{"source": "patent US20200397766A1", "about": "“POROUS EMBOLIZATION MICROSPHERES COMPRISING DRUGS” (VAN RIJN BEHEER B.V., priority 2018, published 2020)", "origin": "cited, not measured here", "data": [{"smiles": "OCCN(CCO)c1nc(N2CCCCC2)c2nc(N(CCO)CCO)nc(N3CCCCC3)c2n1", "note": "[Dipyridamole, dipyridamole]", "values": [{"measurement": "solubility in DMSO", "setting": "DMSO", "value": "high solubility in DMSO"}, {"measurement": "solubility in water", "setting": "water", "value": "low solubility in water"}]}]}
